Source: BindingDB's records for doi:10.1016/j.bioorg.2016.10.001 (Jamia Millia Islamia (A Central University), 2016)

biological target: DNA topoisomerase 2-alpha (Homo sapiens, UniProt P11388); experiment: Topoisomerase IIα Relaxation Assay; details: pH 7.9
Method: Relaxation of negatively supercoiled plasmid DNA by human topoisomerase IIα was assayed in 20 µL of reaction buffer (10 mM Tris-HCl, pH 7.9, 150 mM NaCl, 0.1% BSA, 0.1 mM spermidine, 5% glycerol and ATP) containing 250 ng of supercoiledpHOT1 plasmid DNA and 1 unit of enzyme. After incubation at 37 °C for 30 min, the reactions were terminated and analysed by agarose gel electrophoresis. The ethidium bromide-stained gel was photographed over UV light for densitometry analysis.

Chain of DNA topoisomerase 2-alpha (P11388 whole entry): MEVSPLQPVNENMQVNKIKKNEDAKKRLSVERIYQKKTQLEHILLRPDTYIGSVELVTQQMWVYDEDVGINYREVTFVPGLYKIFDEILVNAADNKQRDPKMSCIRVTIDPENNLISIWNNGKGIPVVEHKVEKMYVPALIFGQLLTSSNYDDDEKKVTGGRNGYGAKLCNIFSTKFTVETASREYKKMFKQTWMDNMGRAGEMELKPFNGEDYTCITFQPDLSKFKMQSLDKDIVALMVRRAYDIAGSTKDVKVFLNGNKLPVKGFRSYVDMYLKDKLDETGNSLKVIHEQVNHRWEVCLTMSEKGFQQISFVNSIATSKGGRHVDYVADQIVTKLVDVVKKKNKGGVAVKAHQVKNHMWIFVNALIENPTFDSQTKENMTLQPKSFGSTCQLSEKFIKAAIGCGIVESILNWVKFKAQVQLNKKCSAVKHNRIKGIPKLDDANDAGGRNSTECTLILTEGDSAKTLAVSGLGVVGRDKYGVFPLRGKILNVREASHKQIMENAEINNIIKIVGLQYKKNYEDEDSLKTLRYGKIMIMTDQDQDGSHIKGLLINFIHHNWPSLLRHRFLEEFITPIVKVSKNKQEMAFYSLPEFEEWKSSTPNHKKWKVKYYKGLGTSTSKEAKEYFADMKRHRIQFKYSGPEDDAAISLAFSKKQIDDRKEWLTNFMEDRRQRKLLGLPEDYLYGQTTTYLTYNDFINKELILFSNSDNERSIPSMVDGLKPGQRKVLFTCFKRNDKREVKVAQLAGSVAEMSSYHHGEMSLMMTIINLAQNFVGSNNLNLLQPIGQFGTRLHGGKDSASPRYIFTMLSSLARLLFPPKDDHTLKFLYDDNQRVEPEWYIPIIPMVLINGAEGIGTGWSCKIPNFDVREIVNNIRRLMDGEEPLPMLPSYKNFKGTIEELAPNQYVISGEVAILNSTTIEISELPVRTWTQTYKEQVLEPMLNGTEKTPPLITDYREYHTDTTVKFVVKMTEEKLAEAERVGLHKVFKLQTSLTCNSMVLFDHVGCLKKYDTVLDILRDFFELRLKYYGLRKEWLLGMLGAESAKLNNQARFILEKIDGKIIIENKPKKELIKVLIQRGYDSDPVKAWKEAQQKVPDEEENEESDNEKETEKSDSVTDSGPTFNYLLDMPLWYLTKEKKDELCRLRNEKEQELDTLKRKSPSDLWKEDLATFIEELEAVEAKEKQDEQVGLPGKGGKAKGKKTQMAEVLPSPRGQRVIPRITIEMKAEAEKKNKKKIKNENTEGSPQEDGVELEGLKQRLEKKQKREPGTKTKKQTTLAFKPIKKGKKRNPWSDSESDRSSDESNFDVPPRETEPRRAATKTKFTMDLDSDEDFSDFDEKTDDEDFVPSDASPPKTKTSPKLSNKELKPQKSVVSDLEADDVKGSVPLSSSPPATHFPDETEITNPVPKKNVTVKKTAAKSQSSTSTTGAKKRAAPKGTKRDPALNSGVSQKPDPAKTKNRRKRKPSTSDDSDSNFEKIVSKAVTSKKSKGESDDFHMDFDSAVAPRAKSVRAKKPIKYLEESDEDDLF

For NC(=S)N1N=C(c2cccnc2)CC1c1cn(-c2ccccc2)nc1-c1ccccc1 (centres undefined) [5-(1,3-Diphenyl-1H-pyrazol-4-yl)-3-(pyridin-3-yl)-4,5-dihydropyrazole-1-carbothioamide (6a)], which IC50 is on record?
Its IC50 is 245 µM.

With NC(=S)N1N=C(c2cccnc2)CC1c1cn(-c2ccccc2)nc1-c1cccc(Br)c1 (centres undefined) [5-(3-(3-Bromophenyl)-1-phenyl-1H-pyrazol-4-yl)-3-(pyridin-3-yl)-4,5-dihydropyrazole-1-carbothioamide (6d)] as the compound, how does the IC50 read?
Its IC50 is 457 µM.

How did the IC50 turn out when NC(=S)N1N=C(c2cccnc2)CC1c1cn(-c2ccccc2)nc1-c1cccc([N+](=O)[O-])c1 (centres undefined) [5-(3-(3-Nitrophenyl)-1-phenyl-1H-pyrazol-4-yl)-3-(pyridin-3-yl)-4,5-dihydropyrazole-1-carbothioamide (6f)] was run?
Its IC50 is 445 µM.

For NC(=S)N1N=C(c2cccnc2)CC1c1cn(-c2ccccc2)nc1-c1ccc(Br)cc1 (centres undefined) [5-(3-(4-Bromophenyl)-1-phenyl-1H-pyrazol-4-yl)-3-(pyridin-3-yl)-4,5-dihydropyrazole-1-carbothioamide (6e)], which IC50 is on record?
Its IC50 is 703 µM.

NC(=S)N1N=C(c2cccnc2)CC1c1cn(-c2ccccc2)nc1-c1ccc(Cl)cc1 (centres undefined) [5-(3-(4-Chlorophenyl)-1-phenyl-1H-pyrazol-4-yl)-3-(pyridin-3-yl)-4,5-dihydropyrazole-1-carbothioamide (6c)] was tested. Which IC50 did it give?
The IC50 was 406 µM.

How did the IC50 turn out when NC(=S)N1N=C(c2cccnc2)CC1c1cn(-c2ccccc2)nc1-c1ccc(F)cc1 (centres undefined) [5-(3-(4-Fluorophenyl)-1-phenyl-1H-pyrazol-4-yl)-3-(pyridin-3-yl)-4,5-dihydropyrazole-1-carbothioamide (6b)] was run?
The IC50 was 272 µM.

Which IC50 does the source give for CCOC(=O)C1C(=O)C=C(c2cn(-c3ccccc3)nc2-c2ccc(C)cc2)CC1c1cccnc1 (centres undefined) [Ethyl 2-oxo-4-(1-phenyl-3-p-tolyl-1H-pyrazol-4-yl)-6-(pyridin-3-yl)cyclohex-3-enecarboxylate (5h)] here?
Its IC50 is 395 µM.

How did the IC50 turn out when CCOC(=O)C1C(=O)C=C(c2cn(-c3ccccc3)nc2-c2ccccc2)CC1c1cccnc1 (centres undefined) [Ethyl 4-(1,3-diphenyl-1H-Pyrazol-4-yl)-2-oxo-6-(pyridin-3-yl)cyclohex-3-enecarboxylate (5a)] was run?
Its IC50 is 222 µM.

For CCOC(=O)C1C(=O)C=C(c2cn(-c3ccccc3)nc2-c2cccc(Br)c2)CC1c1cccnc1 (centres undefined) [Ethyl 4-(3-(3-bromophenyl)-1-phenyl-1H-pyrazol-4-yl)-2-oxo-6-(pyridin-3-yl)cyclohex-3-enecarboxylate (5d)], which IC50 is on record?
The IC50 was less than 100 µM.

CCOC(=O)C1C(=O)C=C(c2cn(-c3ccccc3)nc2-c2cccc([N+](=O)[O-])c2)CC1c1cccnc1 (centres undefined) [Ethyl 4-(3-(3-nitrophenyl)-1-phenyl-1H-pyrazol-4-yl)-2-oxo-6-(pyridin-3-yl)cyclohex-3-enecarboxylate (5f)] was tested. Which IC50 did it give?
The IC50 was less than 100 µM.

Which IC50 does the source give for CCOC(=O)C1C(=O)C=C(c2cn(-c3ccccc3)nc2-c2ccc(Cl)cc2)CC1c1cccnc1 (centres undefined) [Ethyl 4-(3-(4-chlorophenyl)-1-phenyl-1H-pyrazol-4-yl)-2-oxo-6-(pyridin-3-yl)cyclohex-3-enecarboxylate (5c)] here?
Its IC50 is less than 100 µM.

CCOC(=O)C1C(=O)C=C(c2cn(-c3ccccc3)nc2-c2ccc(F)cc2)CC1c1cccnc1 (centres undefined) [Ethyl 4-(3-(4-fluorophenyl)-1-phenyl-1H-pyrazol-4-yl)-2-oxo-6-(pyridin-3-yl)cyclohex-3-enecarboxylate (5b)] was tested. Which IC50 did it give?
Its IC50 is less than 100 µM.

For CCOC(=O)C1C(=O)C=C(c2cn(-c3ccccc3)nc2-c2ccc(OC)cc2)CC1c1cccnc1 (centres undefined) [Ethyl 4-(3-(4-methoxyphenyl)-1-phenyl-1H-pyrazol-4-yl)-2-oxo-6-(pyridin-3-yl)cyclohex-3-enecarboxylate (5i)], which IC50 is on record?
The IC50 was 428 µM.

CCOC(=O)C1C(=O)C=C(c2cn(-c3ccccc3)nc2-c2ccc([N+](=O)[O-])cc2)CC1c1cccnc1 (centres undefined) [Ethyl 4-(3-(4-nitrophenyl)-1-phenyl-1H-pyrazol-4-yl)-2-oxo-6-(pyridin-3-yl)cyclohex-3-enecarboxylate (5g)] was tested. Which IC50 did it give?
The IC50 was 256 µM.
